The record followed here is patent US10442835B2, “Water-soluble rapamycin derivatives” (Zhejiang Hisun Pharmaceutical Co., Ltd., priority 2016, dated 2019).

Series [1] can be described thus: Test for solubility in water. The format is physicochemical. Particulars: water, thermodynamic from solid. As for the experimental part:
The experiments herein can measure the dissolution profile in water of the compounds according to the present invention.
To a 25 ml volumetric flask, 25 mg everolimus was added, and diluted with acetonitrile to volume. The mixture was shaken till all the solid dissolved, obtaining 1 mg/mL everolimus solution in acetonitrile.
1 mg/mL everolimus solution in acetonitrile was added to a 10 ml volumetric flask, and was diluted with acetonitrile by 2 times, 10 times, 100 times and 1000 times, so as to obtain everolimus solutions in acetonitrile with a concentration of 0.5 mg/mL, 0.1 mg/mL, 0.01 mg/mL and 0.001 mg/mL, respectively.
Each of the three mixtures was shaken till the solid in the volumetric flask stopped to dissolve. Before analyzed by HPLC, 1 mL of each solution was filtrated via a 0.22 μm filter. The solubility of the compounds was calculated from the standard curve using the peak area of the main peak obtained.
Based on the same study method, comparisons of the solubility between sirolimus/temsirolimus and the compounds modified by glutathione are carried out, respectively.

Series [2] in a line: In vivo pharmacokinetic study in rats. Further details: species or system SD rats. The procedure:
To further study the in vivo pharmacokinetic characteristics of compound I-1 in rats, compound I-1 was administrated to SD rats via intravenous injection. The in vivo pharmacokinetic characteristics and bioavailability of everolimus released in rats were measured, and compared with the pharmacokinetic characteristics of everolimus via oral administration.
Then the animals were observed when blood was sampled every time until the last sample was collected.

Setting [3] is: Sprague-Dawley (SD), rat, everolimus in plasma, everolimus PO 10 mg/kg, male SD rats.

By solubility is commonly meant how much of the substance goes into solution per volume. One may read the AUC(0-inf) as the area under the concentration-time curve extrapolated to infinity. Low values mean low exposure, high ones high exposure. By AUC(0-t) is commonly meant the area under the concentration-time curve up to a stated or last time point. Broadly, the Cmax is the highest concentration seen after dosing. By Tmax is commonly meant the time at which the peak concentration occurs. In general, half-life refers to the time needed for the level to fall by half in the phase considered. Lower therefore signals rapid decline. By MRT is commonly meant a mean duration of stay, worked out from the concentration-time curve.

For the compound `CO[C@H]1C[C@@H]2CC[C@@H](C)[C@@](O)(O2)C(=O)C(=O)N2CCCC[C@H]2C(=O)O[C@H]([C@H](C)C[C@@H]2CC[C@@H](OCCO)[C@H](OC)C2)CC(=O)[C@H](C)/C=C(\C)[C@@H](O)[C@@H](OC)C(=O)[C@H](C)C[C@H](C)/C=C/C=C/C=C/1C` [Everolimus, reference compound], in series [1], the solubility was less than 1 µg/mL. For the same compound, in series [2] (Sprague-Dawley (SD), rat, plasma, 3 h, oral administration of everolimus 10.000 mg/kg, male SD rats), the concentration at 3 h came to 64.3 ng/mL. In series [2] (Sprague-Dawley (SD), rat, plasma, 4 h, oral administration of everolimus 10.000 mg/kg, male SD rats), this compound displayed a concentration at 4 h of 61.4 ng/mL. Further, the concentration at 6 h in series [2] (Sprague-Dawley (SD), rat, plasma, 6 h, oral administration of everolimus 10.000 mg/kg, male SD rats) amounted to 32.3 ng/mL. In series [2] (setting [3]), the AUC(0-inf) came to 454 ng·h/mL, the AUC(0-t) was 454 ng·h/mL, the peak level (Cmax) was 126 ng/mL and the Tmax was 1.91 h. In addition, the half-life in series [2] (setting [3]) was 2.2 h. In addition, the mean residence time MRT in series [2] (Sprague-Dawley (SD), rat, everolimus in plasma, everolimus PO 10 mg/kg, male SD rats, read-out: MRT (mean residence time)) is 3.17 h. Also, the “AUC Extr” value in series [2] (everolimus in plasma, everolimus PO 10 mg/kg, male SD rats) is 6.90%. Moreover, the concentration at 0 h in series [2] (rat, plasma, 0 h, oral administration of everolimus 10.000 mg/kg, male SD rats) turned out to be 0 ng/mL. Also, in series [2] (rat, plasma, 0.25 h, oral administration of everolimus 10.000 mg/kg, male SD rats), the concentration at 0.25 h is 17.3 ng/mL. In series [2] (rat, plasma, 0.5 h, oral administration of everolimus 10.000 mg/kg, male SD rats), this compound showed a concentration at 0.5 h of 99.9 ng/mL. The same compound displayed a concentration at 1 h in series [2] (rat, plasma, 1 h, oral administration of everolimus 10.000 mg/kg, male SD rats) of 99.1 ng/mL. The same compound returned a concentration at 1.5 h in series [2] (rat, plasma, 1.5 h, oral administration of everolimus 10.000 mg/kg, male SD rats) of 90.4 ng/mL. The compound also displayed a concentration at 2 h in series [2] (rat, plasma, 2 h, oral administration of everolimus 10.000 mg/kg, male SD rats) of 69.7 ng/mL. The same compound came in with a concentration at 8 h in series [2] (rat, plasma, 8 h, oral administration of everolimus 10.000 mg/kg, male SD rats) of 16.3 ng/mL. Also, the concentration at 24 h in series [2] (rat, plasma, 24 h, oral administration of everolimus 10.000 mg/kg, male SD rats) came to 2.2 ng/mL. Besides, in series [2] (rats orally administrated with everolimus 10 mg/Kg), the “area under the curve (AUC) of plasma concentration of everolimus vs. time” value is “about 450”.
